One compound from publication PMC11796312, “Multifunctional, Fluorene‐Based Modulator of Cholinergic and GABAergic Neurotransmission as a Novel Drug Candidate for Palliative Treatment of Alzheimer's Disease” (Angewandte Chemie (International Ed. in English), 2024) can be followed below.

SMILES strings stand for the structures. Like-named read-outs stand apart in the source and are kept apart here.

In one series the test system is mice. Put plainly: Locomotor activity test. It is filed as in vivo. As to conditions: 10 and 30 mg/kg i.p. On the procedure:
Effect on depressive-like behavior - forced swim test
The experiment was carried out according to Porsolt et al.[48] with small modifications.
Briefly, mice were individually placed in a glass cylinder (25 cm high, 10 cm in diameter) containing 11 cm of water maintained at 23–25 °C and were left therein for 6 min. A mouse was regarded as immobile when it remained floating on the water, making only small movements to keep its head above it. The total duration of immobility was measured during the final 4 min of a 6-min test session.
Effect on anxiety - four-plate test
The four-plate apparatus (FPT; Bioseb, France) consists of a cage (25 × 18 × 16 cm) that is floored with four rectangular metal plates (11 × 8 cm). The plates are separated from one another by a 4 mm gap, and they are connected to an electroshock generator. […] The number of punished crossings was counted […]
of the closed arms. […] The following parameters were measured in this test: time spent in open arms of the EPM device and the number of entries to open arms. […]
crossings) were counted during the next 60 min of the test. […]
For the analysis of data obtained in the in vivo tests GraphPad Prism software (v. 9.0, CA, USA) was used. Numerical results from the tests were expressed as mean ± standard error of the mean (SEM). […]
In this fear-motivated task the effect of 6 on scopolamine-induced cognitive dysfunction was assessed. […]

Another series addresses mGAT1 (Mus musculus, UniProt P31648). The experiment in a line: MS Binding Assay with NO 711 as marker.
Series [1] is described as follows: Cell viability, PrestoBlue (immunotoxicity). It is filed as cell-based. As to conditions: mouse, 24 h, read-out: viability, immuntoxicity X [%]. As for the experimental part:
(§1) The mouse microglial cells (BV-2) were cultured using standard procedures. The cells were a generous gift from professor Bozena Kaminska-Kaczmarek from Laboratory of Molecular Neurobiology, Neurobiology Center, Nencki Institute of Experimental Biology, Polish Academy of Sciences, Warsaw, Poland. The cells were cultured in Dulbecco’s Modified Eagle’s Medium - high glucose, (DMEM, Glutamx ThermoFisher ) supplemented with 10% fetal bovine serum heat inactivated (ThermoFisher), with added 100 IU/ml penicillin (Sigma Aldrich) and 100 µg/ml streptomycin (Sigma Aldrich). […]
(§2) an area of 175 cm2 (Nunc), and incubated at 37◦C, 5% CO2. For the test of compounds with the BV-2 cells line, microglia cells were seeded on 96-well culture plate (Falcon) at a density of 2x10^4 cells per well in fresh medium. The cells were grown for 24 hours in the incubator (37°C, 5% CO2) before performing experiments. […]
(§3) Preparation of stock solutions of tested compounds
(§4) Stock solutions were prepared in the concentration of 10 mM for test and reference compounds. Minimum 1 mg of each tested compound was weighed and dissolved in appropriate volume of dimethyl sulfoxide. Serial dilutions were prepared in DMSO and then the diluted compounds were transferred to PBS. Before assays eventual precipitation or opalescence was checked. All experiments were performed in duplicates, in three independent experiments. Cell viability was measured after 24 hours of incubation with tested cell line.
(§5) Cell viability was evaluated using the Presto Blue reagent (Thermo Fisher), according to the manufacturer procedures. Following 24 hours of incubation with the tested molecule, PrestoBlue reagent was added to a microplate well in an amount equal to one tenth of the remaining medium volume. The resulting mixture was incubated for 15 minutes at 37°C, and the fluorescence intensity (EX 530; EM 580 nm) was measured in the plate reader POLARstar Omega, (BMG Labtech). The results (viability values) are provided as a percentage of live cells with respect to DMSO (control sample).
(§6) Viability values were calculated as a percentage of live cells with respect to the control sample (DMSO). The negative control was medium without cells. IC 50 was determined by […]
(§7) nonlinear regression analysis using GraphPad Prism 9.0 software. All values are expressed as […]
(§8) Table S10. The viability of cells. neurotoxicity immuntoxicity
(§9) The results (viability values) are provided as a percentage of live cells with respect to DMSO (control sample)
(§10) Table S11. The viability of cells.

The subject of series [2] is mouse microglial cells (BV-2). The experiment in a line: Cell viability, PrestoBlue (immunotoxicity). It is filed as cell-based. Conditions: Mus musculus, BV-2, 24 h. As for the experimental part:
as §1, §2, §3, §4, §5, §6, §7, §8, §9, §10

Usually Ki stands for a dissociation constant, usually derived from enzyme kinetics or from competition with a known ligand. The term viability denotes a read-out of living cells in per cent, often relative to untreated cells. Regarding `O[C@H](CNCC1CC1)[C@H](Cc1ccccc1)NC1c2ccccc2-c2ccccc21` [Compound 6], the locomotor activity entry in the series on mice is “None of these doses significantly affected the locomotor activity”. The affinity at mGAT1, expressed as Ki, was 37.2 µM. In series [1] (BV-2, 0.1 µM), the viability at 24 h, 0.1 µM stood at 102%. The viability at 24 h, 1 µM in series [1] (BV-2, 1 µM) is 103%. In addition, the viability at 24 h, 10 µM in series [1] (BV-2, 10 µM) came out at 94.8%. The viability at 24 h, 50 µM in series [1] (BV-2, 50 µM) was 2%. In addition, the viability at 24 h, 100 µM in series [1] (BV-2, 100 µM, vs DMSO) worked out at 1.3%. Besides, the values for the IC50 in series [2] (read-out: IMMUNOTOXICTY IC50) and in series [2] (read-out: IMMUNOTOXICTY pIC (converted)) were 18.9 µM and 19.1 µM, respectively.
